Assay results as given in patent publication US6727232B2, “Nucleoside peptide antibiotics of AA-896” (Wyeth Holdings Corporation, priority 2001, dated 2004).
Read-outs that look alike come from different tables or passages of the source.

Columns and labels:
Experiment in all cases: Broth dilution MIC
Assay type in all cases: cell-based
S. marcescens GC 4077 = conditions: Serratia marcescens, read-out: Antimicrobial Activity (MIC)
Summary of the method: (§1)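 Broth dilution in Mueller-Hinton medium with 18 h incubation at 35° C.; the minimal concentration that stops growth of each strain is the MIC.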

S. aureus GC 1131 = conditions: Staphylococcus aureus, read-out: Antimicrobial Activity (MIC)
Summary of the method: as §1

E. faecalis GC 2242 = conditions: Enterococcus faecalis, read-out: Antimicrobial Activity (MIC)
Summary of the method: as §1

E. cloacae GC 3783 = conditions: Enterobacter cloacae, read-out: Antimicrobial Activity (MIC)
Summary of the method: as §1

E. coli GC 4560 = conditions: Escherichia coli, read-out: Antimicrobial Activity (MIC)
Summary of the method: as §1

P. aeruginosa GC 2214 = conditions: Pseudomonas aeruginosa, read-out: Antimicrobial Activity (MIC)
Summary of the method: as §1

E. faecalis GC 4555 = conditions: Enterococcus faecalis, read-out: Antimicrobial Activity (MIC)
Summary of the method: as §1

E. coli GC 2203 = conditions: Escherichia coli, read-out: Antimicrobial Activity (MIC)
Summary of the method: as §1

CNS GC 4538 = conditions: read-out: Antimicrobial Activity (MIC)
Summary of the method: as §1

P. aeruginosa GC 4532 = conditions: Pseudomonas aeruginosa, read-out: Antimicrobial Activity (MIC)
Summary of the method: as §1

K. pneumoniae GC 4534 = conditions: Klebsiella pneumoniae, read-out: Antimicrobial Activity (MIC)
Summary of the method: as §1

E. coli GC 3226 = conditions: Escherichia coli, read-out: Antimicrobial Activity (MIC)
Summary of the method: as §1

S. aureus GC 4536 = conditions: Staphylococcus aureus, read-out: Antimicrobial Activity (MIC)
Summary of the method: as §1

CNS GC 4547 = conditions: read-out: Antimicrobial Activity (MIC)
Summary of the method: as §1

E. coli GC 4559 = conditions: Escherichia coli, read-out: Antimicrobial Activity (MIC)
Summary of the method: as §1

S. aureus GC 2216 = conditions: Staphylococcus aureus, read-out: Antimicrobial Activity (MIC)
Summary of the method: as §1

P. rettgeri GC 4530 = conditions: Providencia rettgeri, read-out: Antimicrobial Activity (MIC)
Summary of the method: as §1

E. faecalis GC 842 = conditions: Enterococcus faecalis, read-out: Antimicrobial Activity (MIC)
Summary of the method: as §1

M. morganii GC 4531 = conditions: Morganella morganii, read-out: Antimicrobial Activity (MIC)
Summary of the method: as §1

CNS GC 4537 = conditions: read-out: Antimicrobial Activity (MIC)
Summary of the method: as §1

[1] = GC4077, S. marcescens GC 4077, Mueller-Hinton broth, 18 hours at 35° C.
[2] = GC1131, S. aureus GC 1131, Mueller-Hinton broth, 18 hours at 35° C.
[3] = GC2242, E. faecalis GC 2242, Mueller-Hinton broth, 18 hours at 35° C.
[4] = GC3783, E. cloacae GC 3783, Mueller-Hinton broth, 18 hours at 35° C.
[5] = GC4560, E. coli GC 4560, Mueller-Hinton broth, 18 hours at 35° C.
[6] = GC2214, P. aeruginosa GC 2214, Mueller-Hinton broth, 18 hours at 35° C.
[7] = GC4555, E. faecalis GC 4555, Mueller-Hinton broth, 18 hours at 35° C.
[8] = GC2203, E. coli GC 2203, Mueller-Hinton broth, 18 hours at 35° C.
[9] = CNS GC 4538, Mueller-Hinton broth, 18 hours at 35° C.
[10] = GC4532, P. aeruginosa GC 4532, Mueller-Hinton broth, 18 hours at 35° C.
[11] = GC4534, K. pneumoniae GC 4534, Mueller-Hinton broth, 18 hours at 35° C.
[12] = GC3226, E. coli GC 3226, Mueller-Hinton broth, 18 hours at 35° C.
[13] = GC4536, S. aureus GC 4536, Mueller-Hinton broth, 18 hours at 35° C.
[14] = CNS GC 4547, Mueller-Hinton broth, 18 hours at 35° C.
[15] = GC4559, E. coli GC 4559, Mueller-Hinton broth, 18 hours at 35° C.
[16] = GC2216, S. aureus GC 2216, Mueller-Hinton broth, 18 hours at 35° C.
[17] = GC4530, P. rettgeri GC 4530, Mueller-Hinton broth, 18 hours at 35° C.
[18] = GC842, E. faecalis GC 842, Mueller-Hinton broth, 18 hours at 35° C.
[19] = GC4531, M. morganii GC 4531, Mueller-Hinton broth, 18 hours at 35° C.
[20] = CNS GC 4537, Mueller-Hinton broth, 18 hours at 35° C.

Measured: MIC

CCCCCCCCNC(=O)NC[C@H]1OC(O[C@H](C2C(=O)N(CCCCCCCC)C(=O)N2CCCNC(=O)C(NC(=O)C(NC(=O)NC(C(=O)O)C(C)C)C2CCNC(=N)N2)C(O)C(C)C)[C@H]2O[C@@H](n3ccc(=O)[nH]c3=O)[C@H](O)[C@@H]2O)[C@H](OC)[C@H]1O (stereo partly drawn) [Example 11, 14-[5-((R)-{(2S,3S,4R,5R)-5-[2,4-Dioxo-3,4-dihydro-1 (2H)-pyrimidinyl]-3,4-dihydroxytetrahydro-2-furanyl}{[(3R,4S,5R)-4-hydroxy-3-methoxy-5-({[(octylamino)carbonyl]amino}methyl)tetrahydro-2-furanyl]oxy}methyl)-3-octyl-2,4-dioxo-1-imidazolidinyl]-9-(1-hydroxy-2-methylpropyl)-6-(2-iminohexahydro-4-pyrimidinyl)-2-isopropyl-4,7,10-trioxo-3,5,8,11-tetraazatetradecan-1-oic Acid]
> 32 µg/mL: S. marcescens GC 4077; [1] | S. aureus GC 1131; [2] | E. faecalis GC 2242; [3] | E. cloacae GC 3783; [4] | E. coli GC 4560; [5] | P. aeruginosa GC 2214; [6] | E. faecalis GC 4555; [7] | E. coli GC 2203; [8] | CNS GC 4538; [9] | P. aeruginosa GC 4532; [10] | K. pneumoniae GC 4534; [11] | E. coli GC 3226; [12] | S. aureus GC 4536; [13] | CNS GC 4547; [14] | E. coli GC 4559; [15] | S. aureus GC 2216; [16] | P. rettgeri GC 4530; [17] | E. faecalis GC 842; [18] | M. morganii GC 4531; [19] | CNS GC 4537; [20]

COC1C(O[C@H](C2C(=O)N(c3ccc(F)cc3)C(=O)N2CCCNC(=O)C(NC(=O)C(NC(=O)NC(C(=O)O)C(C)C)C2CCNC(=N)N2)C(O)C(C)C)[C@H]2O[C@@H](n3ccc(=O)[nH]c3=O)C(O)C2O)O[C@H](CNC(=O)Nc2ccc(F)cc2)C1O (stereo partly drawn) [Example 12, 14-[5-((R)-{(2S,5R)-5-[2,4-Dioxo-3,4-dihydro-1 (2H)-pyrimidinyl]-3,4-dihydroxytetrahydro-2-furanyl}{[(5R)-4-hydroxy-3-methoxy-5-({[(4-fluoroanilino)carbonyl]amino}methyl)tetrahydro-2-furanyl]oxy}methyl)-3-(4-fluorophenyl)-2,4-dioxo-1-imidazolidinyl]-9-(1-hydroxy-2-methylpropyl)-6-(2-iminohexahydro-4-pyrimidinyl)-2-isopropyl-4,7,10-trioxo-3,5,8,11-tetraazatetradecan-1-oic Acid]
> 32 µg/mL: S. marcescens GC 4077; [1] | S. aureus GC 1131; [2] | E. faecalis GC 2242; [3] | E. cloacae GC 3783; [4] | E. coli GC 4560; [5] | P. aeruginosa GC 2214; [6] | E. faecalis GC 4555; [7] | E. coli GC 2203; [8] | CNS GC 4538; [9] | P. aeruginosa GC 4532; [10] | K. pneumoniae GC 4534; [11] | E. coli GC 3226; [12] | S. aureus GC 4536; [13] | CNS GC 4547; [14] | E. coli GC 4559; [15] | S. aureus GC 2216; [16] | P. rettgeri GC 4530; [17] | E. faecalis GC 842; [18] | M. morganii GC 4531; [19] | CNS GC 4537; [20]

COc1ccc(NC(=O)NC[C@H]2OC(O[C@H](C3C(=O)N(c4ccc(OC)cc4)C(=O)N3CCCNC(=O)C(NC(=O)C(NC(=O)NC(C(=O)O)C(C)C)C3CCNC(=N)N3)C(O)C(C)C)[C@H]3O[C@@H](n4ccc(=O)[nH]c4=O)C(O)C3O)C(OC)C2O)cc1 (stereo partly drawn) [Example 13, 14-[5-((R)-{(2S,5R)-5-[2,4-Dioxo-3,4-dihydro-1 (2H)-pyrimidinyl]-3,4-dihydroxytetrahydro-2-furanyl}{[(5R)-4-hydroxy-3-methoxy-5-({[(4-methoxyanilino)carbonyl]amino}methyl)tetrahydro-2-furanyl]oxy}methyl)-3-(4-methoxyphenyl)-2,4-dioxo-1-imidazolidinyl]-9-(1-hydroxy-2-methylpropyl)-6-(2-iminohexahydro-4-pyrimidinyl)-2-isopropyl-4,7,10-trioxo-3,5,8,11-tetraazatetradecan-1-oic Acid]
> 32 µg/mL: S. marcescens GC 4077; GC4077, 18 h | S. aureus GC 1131; GC1131, 18 h | E. faecalis GC 2242; GC2242, 18 h | E. cloacae GC 3783; GC3783, 18 h | E. coli GC 4560; GC4560, 18 h | P. aeruginosa GC 2214; GC2214, 18 h | E. faecalis GC 4555; GC4555, 18 h | E. coli GC 2203; GC2203, 18 h | CNS GC 4538; 18 h | P. aeruginosa GC 4532; GC4532, 18 h | K. pneumoniae GC 4534; GC4534, 18 h | E. coli GC 3226; GC3226, 18 h | S. aureus GC 4536; GC4536, 18 h | CNS GC 4547; 18 h | E. coli GC 4559; GC4559, 18 h | S. aureus GC 2216; GC2216, 18 h | P. rettgeri GC 4530; GC4530, 18 h | E. faecalis GC 842; GC842, 18 h | M. morganii GC 4531; GC4531, 18 h | CNS GC 4537; 18 h
